Source: BindingDB's records for doi:10.1021/jm9605849 (Monash University, 1997)

Target: 5-hydroxytryptamine receptor 1D (Bos taurus)
Experiment: Affinity pKi for 5-hydroxytryptamine 1D receptor was measured in calf caudate homogenate

Ki: 10 µM
Structure (SMILES): CCOC(=O)c1[nH]c2ccc(CCN3C(=O)CNC3=O)cc2c1CCN(C)C
